In ChEMBL document CHEMBL1143395, “Cloning, expression, post-translational modifications and inhibition studies on the latest mammalian carbonic anhydrase isoform, CA XV” (J Med Chem, 2009):

These compounds were tested against T1, Carbonic anhydrase 15 (Mus musculus, UniProt Q99N23).
T1 sequence (Q99N23 whole entry): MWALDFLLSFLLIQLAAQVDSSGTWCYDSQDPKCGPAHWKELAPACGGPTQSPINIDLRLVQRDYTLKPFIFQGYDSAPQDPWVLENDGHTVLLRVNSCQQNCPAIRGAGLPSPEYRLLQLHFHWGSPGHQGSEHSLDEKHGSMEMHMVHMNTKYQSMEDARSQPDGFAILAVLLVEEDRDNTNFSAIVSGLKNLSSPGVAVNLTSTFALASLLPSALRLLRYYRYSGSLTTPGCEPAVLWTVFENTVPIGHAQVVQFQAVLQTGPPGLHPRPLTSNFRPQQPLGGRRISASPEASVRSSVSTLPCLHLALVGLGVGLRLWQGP

`NNc1ccccc1S(N)(=O)=O` and `Nc1ccccc1S(N)(=O)=O` are within 1.5-fold of each other in Ki: 6900 nM for the first, 8810 nM for the second.

`Nc1nnc(S(N)(=O)=O)s1` and `NS(=O)(=O)c1nnc(-c2ccccc2Cl)s1` are within 1.5-fold of each other in Ki: 48 nM for the first, 60 nM for the second.

`Nc1ccc(S(=O)(=O)NCc2ccc(S(N)(=O)=O)cc2)cc1` and `Nc1ccc(S(=O)(=O)NCCc2ccc(S(N)(=O)=O)cc2)cc1` are within 1.5-fold of each other in Ki: 49 nM for the first, 63 nM for the second.

Compared with `Nc1cc(Cl)c(S(N)(=O)=O)cc1S(N)(=O)=O`, `NS(=O)(=O)c1cc(Cl)c(Cl)c(S(N)(=O)=O)c1` [DICHLORPHENAMIDE] is 8-fold lower in Ki: 757 nM for the first, 95 nM for the second. The second binds more tightly here.

First: Nc1nccc(Nc2ccc(S(N)(=O)=O)cc2)n1
Second: NNc1ccc(S(N)(=O)=O)cc1
The Ki of the first is 140-fold lower: 67 nM for the first, 9540 nM for the second. The first binds more tightly here.

`NS(=O)(=O)c1nc2ccc(O)cc2s1` and `CCOc1ccc2nc(S(N)(=O)=O)sc2c1` [ETHOXZOLAMIDE] are within 1.5-fold of each other in Ki: 64 nM for the first, 58 nM for the second.

`Nc1ccc(S(N)(=O)=O)cc1Br` and `Nc1ccc(S(N)(=O)=O)cc1F` are within 1.5-fold of each other in Ki: 83 nM for the first, 79 nM for the second.

`Cn1nc(S(N)(=O)=O)sc1=N` and `CC(=O)/N=c1/sc(S(N)(=O)=O)nn1C` [METHAZOLAMIDE] are within 1.5-fold of each other in Ki: 49 nM for the first, 65 nM for the second.

`NS(=O)(=O)c1ccc(CCO)cc1` and `NS(=O)(=O)c1ccc(CO)cc1` are within 1.5-fold of each other in Ki: 4660 nM for the first, 4560 nM for the second.

First: Nc1ccc(S(N)(=O)=O)cc1Cl
Second: Nc1ccc(S(N)(=O)=O)cc1 [SULFANILAMIDE]
The Ki of the first is 160-fold lower: 62 nM for the first, 9610 nM for the second.

`NS(=O)(=O)c1ccc(S(=O)(=O)Nc2cccc3c(Cl)c[nH]c23)cc1` and `NS(=O)(=O)c1nnc(NS(=O)(=O)c2ccccc2)s1` [BENZOLAMIDE] are within 1.5-fold of each other in Ki: 72 nM for the first, 70 nM for the second.

Going from `CCN[C@H]1CN(CCCOC)S(=O)(=O)c2sc(S(N)(=O)=O)cc21` [BRINZOLAMIDE] to `Cc1ccc(S(N)(=O)=O)cc1` [P-TOLUENESULFONAMIDE], the Ki rises from 61 nM to 7990 nM (130-fold). The first binds more tightly here.

Compared with `NS(=O)(=O)c1ccc(C(=O)O)cc1` [CARZENIDE], `NCc1ccc(S(N)(=O)=O)cc1` [MAFENIDE] is 4.8-fold lower in Ki: 4650 nM for the first, 970 nM for the second.

Going from `CC1(C)O[C@@H]2[C@@H](CO[C@@]3(COS(N)(=O)=O)OC(C)(C)O[C@@H]23)O1` [TOPIRAMATE] to `NS(=O)(=O)Cc1noc2ccccc12` [ZONISAMIDE], the Ki rises from 78 nM to 634 nM (8.1-fold).

These compounds were tested against Carbonic anhydrase 6 (Homo sapiens, UniProt P23280).
Sequence of Carbonic anhydrase 6 (P23280 whole entry): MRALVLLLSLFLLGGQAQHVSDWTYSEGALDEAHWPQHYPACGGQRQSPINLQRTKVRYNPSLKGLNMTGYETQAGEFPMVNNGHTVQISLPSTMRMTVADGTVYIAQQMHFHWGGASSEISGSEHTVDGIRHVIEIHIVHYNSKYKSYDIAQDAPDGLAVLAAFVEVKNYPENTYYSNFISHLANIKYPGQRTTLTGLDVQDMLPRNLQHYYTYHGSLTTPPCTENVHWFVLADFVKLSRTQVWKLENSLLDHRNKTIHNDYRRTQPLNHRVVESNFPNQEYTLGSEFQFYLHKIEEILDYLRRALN

Work on `Cc1ccc(-c2cc(C(F)(F)F)nn2-c2ccc(S(N)(=O)=O)cc2)cc1` [CELECOXIB] yielded a Ki of 94 nM.
